Reference: publication PMC7659979, “Discovery and Evaluation of Enantiopure 9H-pyrimido[4,5-b]indoles as Nanomolar GSK-3β Inhibitors with Improved Metabolic Stability” (International Journal of Molecular Sciences, 2020)

Assays:
Assay type in all cases: cell-based, human
[1] = system: GSK3β activity (phospho-GSK3α/β) in neuronal SH-SY5Y cells; assay: Cellular GSK-3α/β inhibition by western blotting in SH-SY5Y cells; settings: 1 μM, 1 h of treatment
Experimental: Initially, we determined the concentrations of (R)-28 not associated to neurotoxicity by the MTT assay. Therefore, concentrations of 1 and 5 µM were selected for the assays in SH-SY5Y cells, which were performed according to previously described protocols.
5. Investigation of Cellular GSK-3α/β Inhibition by (R)-28 and Its Neuroprotective Effects
Human neuronal SH-SY5Y cells (Sigma Aldrich, St. Louis, MO, USA) were routinely grown in Dulbecco’s modified Eagle’s Medium supplemented with 10% fetal bovine serum, 2 mM L-glutamine, 50 U/mL penicillin and 50 µg/mL streptomycin at 37 °C in a humidified incubator with […]
SH-SY5Y cells were seeded in a 96-well plate at 2 × 10^4 cells/well, incubated for 24 h and then treated with various concentrations (1.25–40 µM) of (R)-28 for 24 h. Cell viability, in terms of mitochondrial activity, was evaluated by MTT assay, as previously described.
5.3. Neuroprotective Activity toward H 2O2
SH-SY5Y cells were seeded in a 96-well plate at 2 × 10^4 cells/well, incubated for 24 h and subsequently treated with (R)-28 (5 µM) and H 2O2 (100 µM) for 1 h. Then, cells were starved in complete medium for 22 h. The neuroprotective activity was measured by using the MTT assay as previously described . Data are expressed as a percentage of neurotoxicity versus untreated cells.
5.4. […]

SH-SY5Y cells [2] = assay: Neuroprotective activity toward H2O2 (MTT assay); settings: 5 μM, concomitant treatment with H2O2 100 μM
Experimental: (§1) Next, we investigated the neuroprotective effects of (R)-28 in SH-SY5Y cells against the neurotoxicity induced by neurotoxins. These included hydrogen peroxide (H2O2, 100 μM) and amyloid-β 1–42 oligomers (OAβ1−42, 10 μM), that mimic general oxidative stress and Alzheimer’s disease (AD), respectively. […] Still, these neuroprotective effects against the oxidative stress underline the potential usefulness of inhibitor (R)-28 in the AD therapeutic area.
(§2) 5. Investigation of Cellular GSK-3α/β Inhibition by (R)-28 and Its Neuroprotective Effects […]
(§3) SH-SY5Y cells were seeded in a 96-well plate at 2 × 10^4 cells/well, incubated for 24 h and then treated with various concentrations (1.25–40 µM) of (R)-28 for 24 h. Cell viability, in terms of mitochondrial activity, was evaluated by MTT assay, as previously described. […]
(§4) SH-SY5Y cells were seeded in a 96-well plate at 2 × 10^4 cells/well, incubated for 24 h and subsequently treated with (R)-28 (5 µM) and H 2O2 (100 µM) for 1 h. […] The neuroprotective activity was measured by using the MTT assay as previously described . Data are expressed as a percentage of neurotoxicity versus untreated cells. […]
(§5) SH-SY5Y cells were seeded in a 96-well plate at 3 × 10^4 cells/well, incubated for 24 h, and subsequently treated with (R)-28 (5 µM) and OAβ 1-42 (10 µM) for 4 h. The neuroprotective activity was measured by using the MTT assay as previously described. […]

SH-SY5Y cells [3] = assay: Neuroprotective activity toward OAβ1-42 (MTT assay); settings: 5 μM, concomitant treatment with OAβ1−42 10 μM
Experimental: as §1, §2, §3, §4, §5

CCC(=O)N1CCC[C@@H](N(C)c2ncnc3[nH]c4cc(Br)ccc4c23)C1 [Compound (R)-28, (R)-1-(3-((7-bromo-9H-pyrimido[4,5-b]indol-4-yl)(methyl)amino)piperidin-1-yl)propan-1-one]
active phospho-GSK3α/β (Tyr279/Tyr216) [1]: decrease | inactive phospho-GSK3α/β (Ser21/9) [1]: increase | neurotoxicity elicited by H2O2 (SH-SY5Y cells [2]): significantly decreased the neurotoxicity | neurotoxicity elicited by OAβ1−42 (SH-SY5Y cells [3]): not
